Source: patent publication US20190022198A1, “Individualized Immunomodulation Therapy for Neurodegenerative Disorders, CNS Injury and Age-Related Dementia” (Yeda Research and Development Co. Ltd., priority 2012, published 2019)

What was measured:
[1] = tested on: WT mice; assay type: in vivo, mouse
[2] = tested on: mSOD1 mice; assay: MOG immunization of mSOD1 mice: EAE symptoms, CP trafficking molecules, leukocytes in CSF and spinal cord, survival; assay type: in vivo, mouse
[3] = tested on: WT, mSOD and 5XFAD mice; assay: Active immunization with MOG and monitoring Tregs and Th1 cells in the blood (Example 19); assay type: in vivo, mouse
Protocol: 200 μg of MOG35-55 (GL Biochem Ltd., Shanghai) are emulsified in 200 μl […] Freund's adjuvant (IFA) containing 0.5 mg/ml M. tuberculosis (strain H37Ra; BD Diagnostics), and 200 μl is injected subcutaneously to three groups of mice: WT, mSOD and 5XFAD. Control mice for each group are injected subcutaneously with PBS. At days 7, 14 and 28 post immunization, the mice are anesthetized, blood is collected into heparin containing tubes and […] of each sample are treated with ACK lysing buffer (Life Technologies) to remove erythrocytes. For intracellular staining of IFN-γ (corresponding to Th1 cells) the cells are incubated with PMA (10 ng/ml; Sigma-Aldrich) and ionomycin (250 ng/ml; Sigma-Aldrich) for 6 h, and Brefeldin-A ([…]; Sigma-Aldrich) was added for the last 4 h. Intracellular labeling is done with BD Cytofix/Cytoperm Plus Fixation/Permeabilization kit (cat. no. 555028) according to the manufacturer's protocol. For intracellular staining of Foxp3^+ T regulatory cells (Tregs), the cells are stained according to manufacturer's protocol (Mouse Regulatory T Cell Staining Kit, eBioscience, cat. No. 88-8111-40). […] Flow cytometry analysis is performed on each sample using a BD Biosciences LSRII flow cytometer, and the acquired data is analyzed using FlowJo software (Tree star). The ratio between Tregs and Th1 cells is calculated for each sample.

[4] = tested on: CP epithelial cells; assay: Primary culture of choroid plexus cells treated with cytokines, mRNA by real-time qPCR; assay type: cell-based, mouse; settings: TNF-α 100 ng/ml
Protocol: Mice were perfused from the left ventricle of the heart with PBS, and their CPs were removed under a dissecting microscope (Stemi DV4; Zeiss) in PBS into tubes containing 0.25% trypsin, and kept on ice. The tubes were shaken for 20 minutes at 37° C. and the tissue was dissociated by pipetting. The cell suspension was washed in culture medium for epithelial cells (DMEM/HAM's F12 (Invitrogen Corp)) supplemented with 10% FCS (Sigma-Aldrich), 1 mM 1-glutamine, 1 mM sodium pyruvate, 100 U/ml penicillin, […] streptomycin, 5 μg/ml Insulin, 20 μM Ara-C, 5 ng/ml sodium selenite, 10 ng/ml EGF, and cultured (˜250,000 cells/well) at 37° C., 5% CO2 in 24-well plates (Corning Incorporated) coated with poly-L-lysine (PLL; Sigma-Aldrich). After 24 hours, the medium was changed, and the cells were either left untreated, or treated with the indicated cytokines (all purchased from PeproTech): IFN-γ, IL-4, IL-10, IL-17A, GM-CSF, IL-6, IL-1β or TNF-α or their combinations for 24 h. Cell viability was quantified by Trypan blue staining after detachment of the cells with 0.25% trypsin for 10 minutes at 37° C. Neutralizing antibodies to TNF-R1 or TNF-R2 ([…], BioLegend) were added 1 h prior to the addition of TNF-α (100 ng/ml). RNA was isolated using the ZR RNA microprep kit (Zymo Research) according to the manufacturer's protocol.
Total RNA of the hippocampus was extracted with TRI reagent (MRC, Cincinnati, Ohio) and was purified from the lysates and spinal cord using the RNeasy kit (Qiagen, Hilden, Germany). Total RNA of the choroid plexus was extracted using the RNA MicroPrep kit (Zymo Research). mRNA (1 μg) was converted to cDNA using High Capacity cDNA Reverse Transcription Kit (Applied Biosystems). The expression of specific mRNAs was assayed using fluorescence based real-time quantitative PCR (qPCR). qPCR reactions were performed using Power SYBR Green PCR Master Mix (Applied Biosystems). Quantification reactions were performed in triplicates for each sample using the standard curve method. Glyceraldehyde 3-phosphate dehydrogenase (GAPDH), Peptidylprolyl isomerase A (PPIA), and hypoxanthine guanine phosphoribosyltransferase (HPRT) were chosen as reference genes according to their stability in the target tissue. The amplification cycles were 95° C. for 5 sec, 60° C. for 20 sec, and 72° C. for 15 sec. At the end of the assay, a melting curve was constructed to evaluate the specificity of the reaction. For some genes, the cDNA was pre-amplified in 14 PCR cycles with non-random PCR primers, thus increasing the sensitivity of the subsequent real-time PCR analysis (PreAmp Master Mix Kit, Applied Biosystems). For these genes, expression was determined using TaqMan Real-Time PCR, according to manufacturer's instructions (Applied Biosystems). All quantitative real-time PCR reactions were performed and analyzed using the 7500 Real-Time PCR System (Applied Biosystems). The following TaqMan probes were used: Mm02342430_g1 (ppia), Mm00446968_m1 (hprt), Mm00445260_m1 (il-4), Mm01168134_m1 (ifn-γ), Mm00441238_m1 (ccl11), Mm00475988_m1 (arg-1). In addition, the following primers were used: […]

[5] = tested on: cultured CP cells; assay: Immunocytochemistry of cultured CP cells treated with cytokines; assay type: cell-based, mouse; settings: cultured cells following TNF-α treatment (data not shown)
Protocol: For whole mount staining of the choroid plexus, isolated tissues were fixed with 2.5% paraformaldehyde (PFA) for several hours, and subsequently transferred to PBS containing 0.05% sodium azide. Prior to staining, the dissected tissues were washed and blocked (20% horse serum, 0.3% Triton X-100, and PBS) for 1 h at room temperature with shaking. Whole mount staining with primary (in PBS containing 2% horse serum and 0.3% Triton X-100) and secondary antibodies (in PBS), was performed for 1h at room temperature, with shaking. Each step was followed by three washes in PBS. The tissues were mounted onto slides, using Immu-mount (9990402, from Thermo), and sealed with cover-slips. For staining of sectioned brains, two different tissue preparation protocols (paraffin embedded and microtomed frozen sections) were applied, as previously described (Ziv Y et al (2006b)). For immunocytochemistry, CP cells were isolated as described above and were grown on PLL coated cover slips for 7 days, replacing the medium every 3 days. Cytokines were added for the last 3 days of culture. Following 7 days of culture, the wells were washed with PBS and the cells were fixed either with 2.5% paraformaldehyde for 30 min or methanol-acetone (1:1) for 10 min at −20° C., following by 2 washing steps with PBS. For CCL11 staining, cells were treated with Brefeldin-A 2 hours prior to fixation in order to arrest protein secretion. The cover slips of the cultured CP cells were incubated with the indicated antibodies and mounted with Glycerol Vinyl Alcohol (GVA) mounting solution (Invitrogen). The following primary antibodies were used: rat anti-CD3 (Abcam); rat anti-ICAM-1 (1:100; Abcam), chicken anti-vimentin (1:500, Millipore), rabbit anti-Iba1 (1:300; Wako), goat anti-IL-10 (1:20; R&D), mouse anti-MHC-II (Abcam); mouse anti-Arginase-1 (BD Biosciences); mouse anti-Cytokeratin (Covance); rat anti-CCL11 (R&D Systems); rabbit anti-ZO-1 (Invitrogen); and rabbit anti-Claudin-1 (Invitrogen). Secondary antibodies included: Cy2/Cy3-conjugated donkey anti-rat, mouse or rabbit antibody and Cy3 conjugated donkey anti-mouse, goat, rat, chicken or rabbit (1:200; all from Jackson Immuno Research). The slides were exposed to Hoechst stain (1:2000; Invitrogen) for 1 min. Two negative controls were routinely used in immunostaining procedures, staining with isotype control antibody followed by secondary antibody, and staining with secondary antibody alone. For morphological quantification, average cross-sectional area of epithelial cells was measured following Nissl staining. Cell borders (20-25 cells per picture) were marked and the area was quantified using Image-Pro Plus software in a blinded fashion.

[6] = tested on: CP cells; assay: Transepithelial migration assay of CD115+ monocytes across CP cells towards CCL2; assay type: cell-based, mouse; settings: TNF-α in combination with IFN-γ (data not shown)
Protocol: For transepithelial migration assay, CP cells were isolated as above and plated on 5-μm pore size, 6.5 mm diameter polycarbonate filters in 24-well Transwell chambers (Costar, Corning) and grown for 7 days. The medium of the upper chamber was then replaced with 100 μl of freshly isolated CD115^+ monocytes (1.5×10^6 cells/ml in RPMI 1640 supplemented with 0.5% BSA) and the inserts were transferred to new wells containing RPMI 1640 supplemented with 0.5% BSA and 100 ng/ml CCL2 (PeproTech). The Transwells were then incubated at 37° C., 5% CO2. After 24 h the migrating cells at the lower chamber were removed using cell scraper and CD11b^+ cells were quantified by flow cytometry.
CD115^+ monocytes were isolated as previously reported (Shechter et al., 2009). Briefly, BM cells were harvested from the femur and tibiae of naïve mice, and enriched for mononuclear cells on a Ficoll density gradient. The CD115^+ BM monocyte population was isolated by MACS enrichment using biotinylated anti-CD115 antibodies and streptavidin-coupled magnetic beads (Miltenyi Biotec) according to the manufacturer's protocols. Monocyte purity was checked by flow cytometry based on CD11b reactivity and was 90%.

For “MOG35-55 (MEVGWYRSPFSRVVHLYRNGK; emulsified in adjuvant) [emulsified in incomplete Freund's adjuvant containing 0.5 mg/ml M. tuberculosis]”, the “infiltrating T cells in the CSF” value ([1]; 14 days post immunization, relative to naïve or OVA-immunized mice) was “increase of infiltrating T cells”, the “expression of ICAM-1 by the CP epithelium” value ([1]; mouse, in vivo) was “induced the expression of ICAM-1” and the “total leukocyte numbers, including T cells and CD4+ T cells, in the CSF” value ([2]; 14 days post immunization) was “increase in total leukocyte numbers”. The “expression of trafficking molecules (ICAM-1, CCL5, CXCL9, CXCL10) in the CP” value ([2]; 14 days post immunization, compared to non-immunized mice) was “significant increase in the expression of trafficking molecules”, the “CD4+ T cell numbers in the spinal cord parenchyma” value ([2]; 28 days post immunization) was “remained elevated” and the “local expression of IL-10 in the spinal cord” value ([2]; 28 days post immunization) was “increased local expression of IL-10”. The “spatial distribution of infiltrating T cells” value ([2]; 28 days post immunization, immunized mSOD1 mice (data not shown)) was “T cells were found in the gray matter of the spinal cord ventral horn”, the “lifespan compared to PBS injected mice” value ([2]; average survival age and Kaplan-Meier curves, logrank p=0.024) was “significantly longer lifespan” and the “Foxp3+ Tregs in the CSF” value ([2]; day 28 post immunization) was “significant elevation of Tregs”. For the same substance, the “Foxp3+ Tregs in the spinal cord parenchyma” value ([2]; day 28 post immunization) was “significant elevation of Tregs”, the “mice still alive at the age of 154 days” value ([2]; immunized mSOD1 mice) was 90% and the average survival ([2]; immunized mSOD1 mice, n=10 per group) was 159.5 ± 2.2 days. For the same substance, the increased average survival ([2]; immunized versus untreated mSOD1 mice) was 15 days, the “CD4+ T cells in the spinal cord parenchyma” value ([2]; mouse, in vivo) was “increased infiltration of CD4^+ T cells” and the “expression of TGF-β1 in the spinal cord parenchyma” value ([2]; mouse, in vivo) was “elevated”. For the same substance, the “ratio of Tregs to Th1 cells in blood” value ([3]; 7 or 14 days following immunization, versus control group) was “lower” and the “ratio of Tregs to Th1 cells in blood” value ([3]; 28 days following immunization, relative to 7 or 14 days) was “increase”.
For TNF-α, the “expression of IFN-γ-receptor (IFN-γR) mRNA” value ([4]; CP epithelial cells, 24 h, IL-1β 100 ng/ml, IL-6 10 ng/ml) was “elevated the expression of IFN-γ-receptor”, the MADCAM-1 expression ([4]; cultured CP cells, 24 hours, IFN-γ independent) was “upregulated” and the IFN-γR immunostaining [5] was “elevation of IFN-γR”. The “monocyte trafficking through the CP towards CCL2” value [6] was “stimulated the CP to mediate monocyte trafficking towards CCL2”.
